# Active and inactive are the calls of the source. The rule behind the calls is not given here.
# System: Trypanosoma cruzi
# Experiment: Inhibition of recombinant Trypanosoma cruzi trans-sialidase catalytic N-terminal domain preincubated at 1 mM for 10 mins by continuous fluorimetric assay
row,SMILES,inhibition
1,CCCCCCCCO[C@@H]1O[C@H](CO)[C@H](O)[C@H](OC)[C@H]1O,13%
2,COC(=O)c1ccc(O[C@@H]2O[C@H](CO)[C@H](O)[C@H](O)[C@H]2O)cc1,11%
3,COC(=O)c1ccc(O[C@@H]2O[C@H](CO)[C@H](O)[C@H](OCC(=O)O)[C@H]2O)cc1,inactive
4,COC(=O)c1ccc(O[C@@H]2O[C@H](CO)[C@H](O)[C@H](OCC#N)[C@H]2O)cc1,7%
5,COC(=O)c1ccc(O[C@@H]2O[C@H](CO)[C@H](O)[C@H](OCC(=O)OC(C)(C)C)[C@H]2O)cc1,inactive
6,COC(=O)c1ccc(O[C@@H]2O[C@H](CO)[C@H](O)[C@H](OCc3nnn[nH]3)[C@H]2O)cc1,inactive
7,Cc1ncc(COP(=O)(O)O)c(C=O)c1O,68%
8,COC(=O)c1ccc(O[C@@H]2O[C@H](CO)[C@H](O)[C@H](OC)[C@H]2O)cc1,7%

# Next, values leading:
row,inhibition,SMILES
1,inactive,COC(=O)c1ccc(O[C@@H]2O[C@H](CO)[C@H](O)[C@H](OCC#N)[C@H]2O)c([N+](=O)[O-])c1
2,21%,COC(=O)c1ccc(O[C@@H]2O[C@H](CO)[C@H](O)[C@H](OCC(=O)O)[C@H]2O)c([N+](=O)[O-])c1
3,inactive,COC(=O)c1ccc(O[C@@H]2O[C@H](CO)[C@H](O)[C@H](OCC(=O)OC(C)(C)C)[C@H]2O)c([N+](=O)[O-])c1
4,18%,COC(=O)c1ccc(O[C@@H]2O[C@H](CO)[C@H](O)[C@H](OCc3nnn[nH]3)[C@H]2O)c([N+](=O)[O-])c1
5,16%,COC(=O)c1ccc(O[C@@H]2O[C@H](CO)[C@H](O)[C@H](OC)[C@H]2O)c([N+](=O)[O-])c1
6,16%,COC(=O)c1ccc(O[C@@H]2O[C@H](CO)[C@H](O)[C@H](O)[C@H]2O)c([N+](=O)[O-])c1
